In patent US12606508B2, “Cannabis extracts and uses thereof” (priority 2020, dated 2026):

Tests used:
human CB1 receptor = biological target: T1, human CB1 receptor (Homo sapiens, UniProt P21554); experiment: Radioligand binding assay at human CB1 receptor ([^3H]CP55940 displacement, Eurofins Discovery); settings: for Ki: Cheng Prusoff from IC50, [^3H]CP55940 radioligand, read-out: hCB1 Ki; for times more active than (−)-trans-Δ^9-THC against CB1 receptor: comparator Δ^9-THC (Ki=40 nM, literature); for times more active than (−)-trans-Δ^9-THCV against CB1 receptor: comparator Δ^9-THCV (Ki 75.4 nM, literature)
T1 construct: Eurofins Discovery (contract assay)
Description: 2.2.4 Binding affinity at human CB1 and CB2 receptors. The binding affinity of (−)-trans-Δ^9-THCB against purified human CB1 and CB2 receptors was determined in a radioligand binding assay. The capability of the ligand to displace radiolabeled [^3H] […] Binding at CB1 and CB2 Receptors. The binding affinity of (−)-trans-Δ^9-THCB against human CB1 and CB2 receptors was determined in a radioligand binding assay performed by Eurofins Discovery. The compound was tested at ten concentrations, ranging from 1 nM to 30 μM, in duplicate. The compound binding was calculated as a % inhibition of the binding of a radioactively labeled ligand specific for each target. […] The results were expressed as a percent inhibition of control specific binding obtained in the presence of the tested compounds using eq. 1.
The IC50 values (concentration causing a half-maximal inhibition of control specific binding) were determined by non-linear regression analysis of the competition curves generated with mean replicate values (eq. 2)^55.
Where Y is the specific binding, A is the left asymptote of the curve, D is the right asymptote f the curve, C is the compound concentration, C50 is the IC50 value and nH is the slope factor. […] The inhibition constants (Ki) were calculated using the Cheng Prusoff equation: […]
3.1.4 Binding affinity at human CB1 and CB2 receptors. […] The binding affinity of (−)-trans-Δ^9-THCP against human CB1 and CB2 receptors was assessed by Eurofins Discovery using a radioligand binding assay. […] Eq. 1 was employed to calculate the percent inhibition of control specific binding obtained in the presence of the tested compounds.
A non-linear regression analysis of the competition curves generated with mean replicate values (eq. 2) was used to calculate the IC50 values (concentration causing a half-maximal inhibition of control specific binding)^51.
Where Y is the specific binding, A is the left asymptote of the curve, D is the right asymptote f the curve, C is the compound concentration, C50 is the IC50 value and nH is the slope factor. […] The inhibition constants (Ki) were determined using the Cheng Prusoff equation (eq. 3):
[formula] • where L is the concentration of the radioligand, and KD is the affinity of the radioligand for the receptor.

C57BL6/J mice = experiment: Tetrad: bar test (catalepsy); format: in vivo; settings: mean±SEM
Description: Mice (n=4) were treated with Δ^9-THCB (10 and 20 mg/kg) or vehicle (0.9% saline and 0.05% DMSO) by intraperitoneal (i.p.) administration. Mice were evaluated for hypomotility (open field test), hypothermia (body temperature test), antinociceptive (hot plate test), and cataleptic effects (bar test), using the tetrad tests as described in the protocol by Metna-Laurent M. et al.^62 Statistical analysis was performed using the Kruskall-Wallis test and Dunn's post hoc tests.
Bar test. The bar used was a 40 cm long and 0.4 cm wide in diameter glass rod, which was horizontally elevated by 5 cm above the surface. Both forelimbs of the mouse were positioned on the bar and its hind legs on the floor of the cage, ensuring that the animal was not lying down on the floor. The chronometer was stopped when the mouse descended from the bar (i.e., when the two forepaws touched the floor) or after the 10 min cut-off time. Catalepsy was measured as the time duration each mouse held the bar by both his forelimbs (latency for moving in seconds).
Male C57BL6/J mice (7 weeks old; n=5) were treated with Δ^9-THCP (10, 5 and 2.5 mg/kg) or vehicle (1:1:18; ethanol:Kolliphor EL:0.9% saline) by i.p. administration. Mice were evaluated for hypomotility (open field test), hypothermia (body temperature), antinociceptive (hot plate test), and cataleptic (bar test) effects, using the tetrad tests^58. Statistical analysis was performed using the Kruskall-Wallis test and Dunn's post hoc tests.
Bar test. The bar test was used for the evaluation of catalepsy. Bar was a 40 cm in length and 0.4 cm in diameter glass rod, which was horizontally elevated by 5 cm above the surface. Both forelimbs of mice were positioned on the bar and its hind legs on the floor of the cage, ensuring that the mouse was not lying down on the floor. The chronometer was stopped when the mouse descends from the bar (i.e., when the two forepaws touched the floor) or when 10 min have elapsed (i.e., cut-off time). Catalepsy was measured as the time duration each mouse held the elevated bar by both his forelimbs (latency for moving in seconds).

CD-1 mice = experiment: Formalin test in mice; format: in vivo; settings: 3 mg/kg, i.p., 20 min before formalin; n=5
Description: Formalin test in mice. Male CD-1 mice 6-8 weeks (Envigo, Italy), were housed under controlled conditions (12 h light/12 h dark cycle; temperature 20-22 C; humidity 55-60%) with chow and tap water available ad libitum. All surgeries and experimental procedures were approved by the Animal Ethics Committee of University of Campania “L. Vanvitelli” (Naples). Animal care was in compliance with Italian (D.L. 116/92) and European Commission (O.J. of E.C. L358/1 18/12/86) regulations on the protection of laboratory animals. All efforts were made to minimize animal suffering and to reduce the number of animals used. All the experiments were performed in a randomized manner by the same operator blind to pharmacological treatments. Mice weighing 28-32 g were used after 1 week-acclimation period and received formalin (1.25% in saline, 30 μL) in the dorsal surface of one side of the hind-paw. Each mouse, randomly assigned to one of the experimental groups (n=5), was placed in a plexiglass cage and allowed to move freely for 15-20 min. A mirror was placed at a 45° angle under the cage to allow full view of the hind-paws. Lifting, favoring, licking, shaking and flinching of the injected paw were recorded as nocifensive behavior.^61 The total time of the nociceptive response was measured every 5 min for 60 minutes and expressed in min (mean±SEM). Mice received vehicle (0.5% DMSO in saline) or different doses of Δ^9-THCB (2, 3 and 5 mg/kg, i.p.) 20 min before formalin injection alone or in combination with AM251 (0.5 mg/kg, i.p.) or AM630 (1 mg/kg, i.p.). The antagonists were administered 10 min before drugs injection.
Statistics for in vivo experiments. Data are represented as means±standard error of the mean (S.E.M). Statistical analysis of the data was performed by analysis of variance two-way ANOVA followed by Bonferroni post hoc or Dunnett's multiple comparison test. All statistical analyses were performed by using GraphPAD software (San Diego, California). Differences were considered significant at p<0.05.

T1 sequence (P21554 whole entry): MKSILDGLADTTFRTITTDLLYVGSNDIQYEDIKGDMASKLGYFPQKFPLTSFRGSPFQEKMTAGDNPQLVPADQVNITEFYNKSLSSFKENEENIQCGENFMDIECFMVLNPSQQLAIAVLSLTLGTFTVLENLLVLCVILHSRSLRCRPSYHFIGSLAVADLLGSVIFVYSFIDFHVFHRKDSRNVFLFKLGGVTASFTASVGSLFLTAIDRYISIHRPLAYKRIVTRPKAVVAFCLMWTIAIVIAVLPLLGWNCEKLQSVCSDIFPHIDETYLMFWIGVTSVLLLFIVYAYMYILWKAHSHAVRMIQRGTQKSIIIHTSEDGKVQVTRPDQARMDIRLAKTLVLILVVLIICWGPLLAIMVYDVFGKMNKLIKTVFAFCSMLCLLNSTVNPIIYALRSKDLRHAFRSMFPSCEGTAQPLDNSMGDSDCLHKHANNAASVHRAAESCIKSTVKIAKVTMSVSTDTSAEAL

SMILES | Ki (human CB1 receptor) | binding affinity to CB1 among the compounds (in words) (human CB1 receptor; comparison of alkyl chain homologues) | times more active than (−)-trans-Δ^9-THC against CB1 receptor (human CB1 receptor; ratio of Ki) | times more active than (−)-trans-Δ^9-THC against CB1 receptor (human CB1 receptor; ratio of Ki, listed as (−)-trans-Δ^9-THCP) | times more active than (−)-trans-Δ^9-THCB against CB1 receptor (human CB1 receptor; ratio of Ki, comparator Δ^9-THCB (Ki 15 nM)) | times more active than (−)-trans-Δ^9-THCV against CB1 receptor (human CB1 receptor; ratio of Ki) | bar test: latency for moving from the catalepsy bar (C57BL6/J mice; Δ^9-THCP 2.5 mg/kg i.p., 10 min cut-off, n=5, vehicle 15.20) | bar test: latency for moving from the catalepsy bar (C57BL6/J mice; Δ^9-THCP 5 mg/kg i.p., 10 min cut-off, n=5, vehicle 15.20) | bar test: latency for moving from the catalepsy bar (C57BL6/J mice; Δ^9-THCP 10 mg/kg i.p., 10 min cut-off, n=5, vehicle 15.20) | IC50 (human CB1 receptor; displacement of [^3H]CP55940, ten concentrations 1 nM to 30 μM, duplicate, SD within ±10%, read-out: hCB1 IC50) | nociceptive response in formalin test (first phase 0-7 min, second phase 15-60 min) (CD-1 mice) | bar test: latency for moving from the catalepsy bar (C57BL6/J mice; Δ^9-THCB 10 mg/kg i.p., n=4, vehicle 3.50) | bar test: latency for moving from the catalepsy bar (C57BL6/J mice; Δ^9-THCB 20 mg/kg i.p., n=4, vehicle 3.50)
CCCCCCCc1cc(O)c2c(c1)OC(C)(C)[C@@H]1CCC(C)=C[C@@H]21 [Δ^9-THCP, (6aR,10aR)-3-heptyl-6,6,9-trimethyl-6a,7,8,10a-tetrahydro-6H-benzo[c]chromen-1-ol] | 1.2 nM | highest binding affinity to CB1 | more than thirty-fold higher | 33 times | 13 times | 63 times | 346.1 s | 493.4 s | 484.5 s | – | – | – | –
CCCCc1cc(O)c2c(c1)OC(C)(C)[C@@H]1CCC(C)=C[C@@H]21 [Δ^9-THCB, (6aR,10aR)-3-butyl-6,6,9-trimethyl-6a,7,8,10a-tetrahydro-6H-benzo[c]chromen-1-ol] | 15 nM | – | – | – | – | five times more active | – | – | – | 28 nM | reduced both first and second phase of formalin test | 3.0 s | 13.0 s
